The source of these data is ChEMBL document CHEMBL1144346, “Synthesis, DNA affinity, and antiprotozoal activity of fused ring dicationic compounds and their prodrugs” (J Med Chem, 2005).

One data set has as its system L6. Nature of the data set: In vitro cytotoxicity evaluated using cultured L6 rat myoblast cells. The format is functional. To be noted: read-out: TD50 (the source's name).
A further data set relates to Plasmodium falciparum. Nature of the data set: In vitro antiprotozoal activity for Plasmodium falciparum K1. The format is functional, organism-based.
Data set [1] relates to Mus musculus. Put plainly: In vivo antitrypanosomal activity (20 mg/kg for 4 days, i.p.) measured as survival days of mice infected with Trypanosoma brucei rhodesiense strain STIB900. The format is functional.
The subject of a further data set is Nucleic Acid. Nature of the data set: poly(d(A-T)2) binding affinity is measured as change in DNA melting temperature. It counts as nucleic-acid assay.
The subject of data set [2] is Trypanosoma brucei rhodesiense. Nature of the data set: In vitro antiprotozoal activity against Trypanosoma brucei rhodesiense strain STIB900. It counts as functional, organism-based.
In data set [3] the test system is Mus musculus. Put plainly: In vivo antitrypanosomal activity (20 mg/kg for 4 days, i.p.) measured as cured mice infected with Trypanosoma brucei rhodesiense strain STIB900; 0 cured out of 4. The format is functional.
The test system of data set [4] is Mus musculus. Nature of the data set: In vivo antitrypanosomal activity (10 mg/kg for 4 days, i.p.) measured as survival days of mice infected with Trypanosoma brucei rhodesiense strain STIB900. The format is functional.
Data set [5] relates to Mus musculus. Put plainly: In vivo antitrypanosomal activity (10 mg/kg for 4 days, i.p.) measured as cured mice infected with Trypanosoma brucei rhodesiense strain STIB900; 2 cured out of 4. It counts as functional.
In data set [6] the test system is Mus musculus. Nature of the data set: In vivo antitrypanosomal activity (20 mg/kg for 4 days, i.p.) measured as cured mice infected with Trypanosoma brucei rhodesiense strain STIB900; 3 cured out of 4. The format is functional.
The subject of data set [7] is Mus musculus. Nature of the data set: In vivo antitrypanosomal activity (100 mg/kg for 4 days, p.o.) measured as cured mice infected with Trypanosoma brucei rhodesiense strain STIB900; 0 cured out of 4.
Data set [8] deals with Mus musculus. The description is as above. The source holds these as a separate data set.
Data set [9] relates to Mus musculus. Put plainly: In vivo antitrypanosomal activity (100 mg/kg for 4 days, p.o.) measured as survival days of mice infected with Trypanosoma brucei rhodesiense strain STIB900.
Data set [10] deals with Mus musculus. Put plainly: In vivo antitrypanosomal activity (25 mg/kg for 4 days, p.o.) measured as cured mice infected with Trypanosoma brucei rhodesiense strain STIB900; 2 cured out of 4.

Regarding `N=C(N)c1ccc(OCCCCCOc2ccc(C(=N)N)cc2)cc1` [PENTAMIDINE], the CC50 in the data set with L6 stood at 1.5 µM. Also, the values for the concentration for half-maximal inhibition (IC50) (in the data set on Plasmodium falciparum; in data set [2]) were 0.0346 µM and 0.0023 µM, respectively. Further, in the data set with Mus musculus [1], the Survival came to 40.8 days. The “delta Tm” value in the data set on Nucleic Acid amounted to 12.6 °C. Besides, in the data set on Mus musculus [3], the Cures amounted to 0.
With `N=C(N)Nc1ccc2c(c1)C(=O)c1cc(NC(=N)N)ccc1-2`, in the data set on L6, the CC50 is 41.5 µM. Besides, the half-inhibitory concentration (IC50) (in general, the concentration at which inhibition is half-maximal) in the data set with Plasmodium falciparum was 0.268 µM; in data set [2], 0.0073 µM. For the same molecule, the Survival in the data set with Mus musculus [4] is >50.75 days. The “delta Tm” value with Nucleic Acid was 6.1 °C. This molecule also registered a Cures with Mus musculus [5] of 2.
As to `N=C(N)Nc1ccc2c(c1)C(=O)c1cc(NC(=N)N)ccc1C2=O`, in the data set on L6, the CC50 came out at 35.3 µM. In addition, the IC50 was determined as 30.2 µM with Plasmodium falciparum and 0.128 µM in data set [2]. The “delta Tm” value in the data set with Nucleic Acid turned out to be 7.2 °C.
On the same counts, the results for `CC(C)/N=C(/N)Nc1ccc2c(c1)Cc1cc(N/C(N)=N\C(C)C)ccc1-2` are 85.2 µM, 0.0357 µM, 0.0404 µM and 9.3 °C.
For the molecule `N=C(N)Nc1ccc2c(c1)Cc1cc(NC(=N)N)ccc1-2`, the CC50 in the data set with L6 stood at 4.7 µM. The Survival in the data set on Mus musculus [1] amounted to 6 days. In addition, the “delta Tm” value with Nucleic Acid was determined as 13.6 °C. The molecule also yielded a Cures with Mus musculus [3] of 0.
With `C/N=C(/N)Nc1ccc2c(c1)Cc1cc(N/C(N)=N\C)ccc1-2`, the CC50 in the data set on L6 amounted to 65.2 µM. Also, the IC50 with Plasmodium falciparum was found to be 0.01 µM; in [2], 0.0126 µM. Also, the Survival in the data set on Mus musculus [1] was >52 days. This molecule also displayed a Cures in the data set with Mus musculus [6] of 3. For the same molecule, the “delta Tm” value in the data set on Nucleic Acid was 10.1 °C.
Take `CCOC(=O)NC(=N)Nc1ccc2c(c1)C(=O)c1cc(NC(=N)NC(=O)OCC)ccc1-2`: in the data set with L6, the CC50 was > 200 µM. Besides, the IC50 in the data set with Plasmodium falciparum turned out to be 3.2 µM; in [2], 12.9 µM. In addition, the Cures in the data set on Mus musculus [7] is 0.
Take `N=C(Nc1ccc2c(c1)Cc1cc(NC(=N)c3ccccn3)ccc1-2)c1ccccn1`: the CC50 in the data set on L6 stood at 98.7 µM. For the same molecule, the figures for the half-maximal inhibitory concentration (IC50) (with Plasmodium falciparum; in data set [2]) were 1.2 µM and 0.894 µM, respectively. The “delta Tm” value in the data set with Nucleic Acid came out at 15.2 °C.
In the data set with Mus musculus [8], `CCOC(=O)N/C(=N/C(C)C)Nc1ccc2c(c1)Cc1cc(N/C(=N\C(C)C)NC(=O)OCC)ccc1-2` yielded a Cures of 0. Also, in the data set with L6, the CC50 is 94.2 µM. Further, the IC50 in the data set with Plasmodium falciparum amounted to 6.3 µM; in data set [2], 2.5 µM.
For `CONC(=N)Nc1ccc2c(c1)Cc1cc(NC(=N)NOC)ccc1-2`, in the data set with Mus musculus [8], the Cures was 0. Also, in the data set on L6, the CC50 was 137 µM. Besides, the IC50 stood at 3 µM with Plasmodium falciparum and 47.5 µM in data set [2]. The same molecule displayed a Survival in the data set on Mus musculus [9] of 8 days.
Take `CC(C)CONC(=N)Nc1ccc2c(c1)Cc1cc(NC(=N)NOCC(C)C)ccc1-2`: the Cures with Mus musculus [8] amounted to 0. The CC50 in the data set on L6 amounted to 68.4 µM. Moreover, the IC50 in the data set on Plasmodium falciparum was found to be 0.351 µM; in [2], 21.2 µM. In the data set on Mus musculus [9], this molecule registered a Survival of 6.75 days.
The molecule `CCOC(=O)NC(=N)Nc1ccc2c(c1)Cc1cc(NC(=N)NC(=O)OCC)ccc1-2` yielded a Cures in the data set with Mus musculus [8] of 0. Also, in the data set on L6, the CC50 was > 201 µM. For the same molecule, the IC50 in the data set on Plasmodium falciparum stood at 3.7 µM; in data set [2], 0.814 µM. Besides, in the data set with Mus musculus [9], the Survival turned out to be 18.75 days.
In the case of `CC/N=C(/N)Nc1ccc2c(c1)Cc1cc(N/C(N)=N\CC)ccc1-2`, the CC50 in the data set with L6 worked out at 39.2 µM. Moreover, the IC50 in the data set with Plasmodium falciparum came to 0.0133 µM; in data set [2], 0.0169 µM. Further, the “delta Tm” value in the data set on Nucleic Acid amounted to 10 °C.
For `CC/N=C(/NC(=O)OCC)Nc1ccc2c(c1)Cc1cc(/N=C(/NCC)NC(=O)OCC)ccc1-2`, the CC50 in the data set on L6 is 174 µM. Further, the IC50 in the data set with Plasmodium falciparum is 4.1 µM; in data set [2], 8 µM.
On to `N=C(N)c1ccc(-c2ccc(-c3ccc(C(=N)N)cc3)o2)cc1` [FURAMIDINE], for which the CC50 with L6 worked out at 6.4 µM. Further, the Survival in the data set on Mus musculus [1] was 52.5 days. Also, the “delta Tm” value with Nucleic Acid was found to be 25 °C. The Cures with Mus musculus [3] is given as 0.
On to `N=C(Nc1ccc2c(c1)Cc1cc(NC(=N)c3ccccc3)ccc1-2)c1ccccc1`, for which, in the data set on L6, the CC50 came to 1.9 µM. Also, the IC50 was 0.481 µM with Plasmodium falciparum and 0.292 µM in data set [2]. Moreover, the “delta Tm” value in the data set with Nucleic Acid is 22 °C.
On to `CCOC(=O)N/C(=N/C)Nc1ccc2c(c1)Cc1cc(N/C(=N\C)NC(=O)OCC)ccc1-2`, for which, in the data set on L6, the CC50 came out at 95.6 µM. Also, the IC50 was 10.3 µM with Plasmodium falciparum and 2.9 µM in data set [2]. Moreover, the Cures in the data set on Mus musculus [10] was 2.
